Assay results published in publication PMC9140920 (International Journal of Molecular Sciences, 2022).

Legend:
[1] = system: antioxidant enzymes in TM4 cells; assay: Antioxidant enzymatic activity assays (SOD, CAT, GPx, GR, GST); type: cell-based, mouse
Protocol: The antioxidant enzymatic activities were performed spectrophotometrically, as previously described. Briefly, after 3 h of incubation with azoles, cells were washed in ice-cold PBS, resuspended in buffer containing 50 mM Tris–HCl (pH 7.4), 1% (v/v) Triton X-100, 1 mM EDTA, and then disrupted by three freeze-thawing cycles. After centrifugation (17,000 g, 10 min, 4 °C), the supernatants were collected for protein quantification and subsequently analysed.
The glutathione reductase (GR) activity was evaluated spectrophotometrically by measuring NADPH oxidation (340 nm at 25 °C). The reaction mix contained 50 mM potassium phosphate buffer (pH 7.0), 1 mM GSSG, 0.2 mM NADPH, 1 mM EDTA, and the adequate protein amount.
Total glutathione peroxidase (GPx) activity (se-dependent and se-independent) of each cell extract was assayed spectrophotometrically by following the NADPH oxidation (340 nm). The assay mixture contained 50 mM potassium phosphate buffer (pH 7.0), 1 mM GSH, 0.01 U/mL GSH reductase, 1 mM EDTA, 0.2 mM NADPH, 70 µM t-BHP, and the adequate amount of the protein extract. The glutathione transferase (GST) activity was evaluated by determining the GSH conjugation rate to 1-chloro-2,4- dinitrobenzene at 340 nm. The reaction mixture was prepared with 0.1 M potassium phosphate buffer (pH 6.5), 2 mM GSH, 1 mM 1-chloro-2,4-dinitrobenzene, and a determined amount of the supernatants.
The catalase (CAT) activity was evaluated, by monitoring at 240 nm its 10-millimolar decomposition. One unit was defined as 1 µmol of H2O2 reduced/min at 25 °C.
The superoxide dismutase (SOD) activity was determined using a colourimetric activity assay (ThermoFisher Scientific—Life Technologies Corp, Carlsband, CA, USA). The assay was conducted according to manufacturer’s instructions; briefly, it measures all types of SOD activity (including Cu/Zn, Mn, and FeSOD). Samples were resuspended in specific coloured diluent and added to a 96-well microplate. […] SOD-specific activity was expressed as U/mg protein, while the specific activity of all the other enzymes analysed was expressed as nmol/min/mg protein.

[2] = design: method as in PMID 42148393; conditions: cattle; cited from earlier work
[3] = system: ROS production in TM4 cells; assay: Intracellular ROS detection (DCFH-DA fluorescence); type: cell-based, mouse; conditions: 3 h of incubation, vs vCTR
Protocol: The intracellular ROS production was detected by using 2′,7′-dichlorofluorescein diacetate (DCFH-DA) (Molecular Probes, Eugene, OR, USA), as previously reported. In brief, after 30 min and 3 h of treatments, samples were incubated with 1 µM DCFH-DA at 37 °C for 30 min. Subsequently, cells were collected and twice washed in ice-cold PBS; samples were then analysed using flow cytometry to detect the presence of intracellular ROS at the wavelengths of 502 and 524 nm, for the excitation and the emission, respectively; the fluorescence intensity was detected with a Perkin Elmer LS-50B spectrofluorometer. Cells treated with 500 µM tert-butyl hydroperoxide (t-BHP) for 1.5 h were used as a positive control for ROS generation.

GSH in TM4 cells = assay: GSH and GSSG intracellular content (colourimetric assay); type: cell-based, mouse; conditions: 3 h of incubation, vs vCTR
Protocol: GSH and GSSG intracellular contents were detected by using a colourimetric assay (ThermoFisher Scientific—Life Technologies Corp, Carlsband, CA, USA). The analyses were performed according to the manufacturer’s instructions after treatments with azoles at 3 h of incubation; in brief, cell lysates were prepared in ice-cold 5% 5-sulfo-salicylic acid dehydrate (Sigma-Aldrich, St. Louis, MO, USA), and subsequently resuspended in the supplied diluent before adding them into a 96-well microplate. After promptly adding substrate, the reaction with the free thiol group of GSH initiates, producing a highly coloured product. The relative absorbance was detected at 405 nm. Assays were performed at least in triplicate for the GSH and the GSSG content detection. To determine oxidised glutathione content, 2-vinylpyridine (2-VP) (Sigma-Aldrich, St. Louis, MO, USA) was added to block free GSH or other thiols contained in each sample; the specific concentration of the GSSG was determined by performing a 2-VP-treated samples standard curve.

ΔΨm in TM4 cells = assay: Mitochondrial membrane potential (ΔΨm) by JC-1 flow cytometry; type: cell-based, mouse; conditions: 3 h of incubation, JC-1, vs vCTR
Protocol: Variations of the ΔΨm in samples exposed to azoles for 3 h were assessed using the lipophilic cation dye JC-1, as previously reported. Cells (1 × 10^6 per sample) were stained for 30 min at 37 °C in a humidified atmosphere, with 3 µM JC-1 (Molecular Probes, Eugene, OR, USA) and collected; after washing in PBS, cells were analysed using flow cytometry. To assure a positive control for the abatement of the ΔΨm, the cells were cultured in the presence of […] rotenone (Sigma-Aldrich, St. Louis, MO, USA) for 1 h at standard conditions, and then incubated with the potentiometric dye as described above. Experiments were performed in triplicate and analysed by an FACS Calibur instrument (BD Instruments Inc., San José, CA, USA). The fluorescent signals from JC-1 monomers or aggregates were detected through the FL-1 (525 ± 5 nm) and FL-2 bandpass filters (575 ± 5 nm), respectively; the forward and side scatter channels gated a minimum of 1 × 10^4 cells on the major population of normal-sized cells. ΔΨm data assessment was performed by the Cell Quest software (BD Instruments Inc., San José, CA, USA).

In the case of `CCCN(CCOc1c(Cl)cc(Cl)cc1Cl)C(=O)n1ccnc1` [PCZ, prochloraz], the “SOD/(GPx + CAT) ratio” value ([1]; 3 h of exposure, vCTR = 0.46 ± 0.067) was 0.0972 ± 0.019, the GST activity ([1]; 3 h of incubation, vs controls) was “substantially reduced” and the “GR/(GPx + GST) ratio” value ([1]; 3 h of incubation, vs vCTR) was “positive and significant shift”. The “residues in edible tissues (moderate bioaccumulation)” value [2] was ≥ 0.01 mg/kg, the “increase in ROS production” value [3] was ~ 1.7 fold and the “intracellular GSH content” value (GSH in TM4 cells) was “only a slight decrease”. The “mean intensity of red-orange fluorescence (MFI) of ΔΨm high population” value (ΔΨm in TM4 cells) was “increases in MFI”.
